By IC50 is commonly meant the concentration that inhibits the measured activity by half.

This test relates to MOLM-13 cells. Put plainly: Viability assay in MOLM-13 cells (CellTiter-Glo 2.0). The test is classed as cell-based, human. The note with it: read-out: MOLM-13 IC50 (cell viability). (In ATP-based viability assays light output follows the ATP content of the culture.)
Where [1] appears, read: MOLM-13 human AML cells, 72 hours, CellTiter-Glo 2.0.

Read-outs that look alike come from different tables or passages of the source.

Protocol: Effects of test compounds on the proliferation and viability of human AML cells was evaluated using the MOLM-13 cell line (AddexBio Technologies cat. no. C0003003). […] Test compounds or controls (Bortezomib or DMSO) diluted in 2% DMSO/media were added to each well for final concentrations of 0.2% DMSO and 0.1-1 μM Bortezomib. The cells were incubated for 72 hours at 37° C. and 5% CO2. At the end of the 72 hour incubation, plates were removed from the incubator, cooled to room temperature and equal volume of CellTiter-Glo 2.0 (Promega) added to each well. After mixing and incubating the plate at room temperature for 10 minutes the luminescence was read using a plate reader. […] Concentration-response-curves and IC50 values were generated using Collaborative Drug Discovery software.

Regarding `CC(C)(NCc1ccc2nc(Cn3ccc4c(-c5ccccc5)cncc4c3=O)cn2c1)c1ccccc1` [Compound 81, 5-phenyl-2-((6-(((2-phenylpropan-2-yl)amino)methyl)imidazo[1,2-a]pyridin-2-yl)methyl)-2,7-naphthyridin-1(2H)-one], the IC50 under setting [1] is 1 to 10 µM.

`O=c1c2cncc(-c3ccccc3)c2ccn1Cc1cn2cc(CNC(CO)c3ccccc3)ccc2n1` (centres unmarked) [Compound 82, 2-((6-(((2-hydroxy-1-phenylethyl)amino)methyl)imidazo[1,2-a]pyridin-2-yl)methyl)-5-phenyl-2,7-naphthyridin-1(2H)-one]: the concentration for half-maximal inhibition (IC50) under setting [1] was 1 to 10 µM.

On to `O=c1c2cncc(-c3ccccc3)c2ccn1Cc1cn2cc(CNCc3ccc(Cl)cc3)ccc2n1` [Compound 84, 2-((6-(((4-chlorobenzyl)amino)methyl)imidazo[1,2-a]pyridin-2-yl)methyl)-5-phenyl-2,7-naphthyridin-1(2H)-one], for which the IC50 (Homo sapiens, MOLM-13, 72 h) fell in the range of 1 to 10 µM.

On to `CC1CCC(CNCc2ccc3nc(Cn4ccc5c(-c6ccccc6)cncc5c4=O)cn3c2)CC1` (centres unmarked) [Compound 85, 2-((6-((((4-methylcyclohexyl)methyl)amino)methyl)imidazo[1,2-a]pyridin-2-yl)methyl)-5-phenyl-2,7-naphthyridin-1(2H)-one], for which, under setting [1], the IC50 is 1 to 10 µM. Same read-out and setting: to `Cc1ccc(CNCc2ccc3nc(Cn4ccc5c(-c6ccccc6)cncc5c4=O)cn3c2)cc1` [Compound 86, 2-((6-(((4-methylbenzyl)amino)methyl)imidazo[1,2-a]pyridin-2-yl)methyl)-5-phenyl-2,7-naphthyridin-1(2H)-one] belongs 1 to 10 µM; to `CC(=O)Nc1ccc(-c2cncc3c(=O)n(Cc4cn5cc(CNCC6CC(F)C6)ccc5n4)ccc23)cn1` (centres unmarked) [Compound 87, N-(5-(7-((6-((((3-fluorocyclobutyl)methyl)amino)methyl)imidazo[1,2-a]pyridin-2-yl)methyl)-8-oxo-7,8-dihydro-2,7-naphthyridin-4-yl)pyridin-2-yl)acetamide], 1 to 10 µM; to `O=c1c2cncc(C3CC3)c2ccn1Cc1cn2cc(CNCC3CCC3)ccc2n1` [Compound 88, 2-((6-(((cyclobutylmethyl)amino)methyl)imidazo[1,2-a]pyridin-2-yl)methyl)-5-cyclopropyl-2,7-naphthyridin-1(2 h)-one], 1 to 10 µM. For `O=c1c2cncc(N3CCC3)c2ccn1Cc1cn2cc(CNCC3CC(F)C3)ccc2n1` (centres unmarked) [Compound 89, 5-(azetidin-1-yl)-2-((6-((((3-fluorocyclobutyl)methyl)-amino)methyl)imidazo[1,2-a]pyridin-2-yl)methyl)-2,7-naphthyridin-1(2H)-one], the IC50 under setting [1] was 1 to 10 µM. On the same count and under the same terms, for `CCNc1ccc2ccc(-c3ccc(Cn4ccc5c(-c6ccccc6)cncc5c4=O)cc3)cc2n1` [Compound 93, 2-(4-(2-(ethylamino)quinolin-7-yl)benzyl)-5-phenyl-2,7-naphthyridin-1(2H)-one] the value was 1 to 10 µM.

As for `CNc1ccc2ccc(-c3ccc(Cn4ccc5c(-c6ccccc6)cncc5c4=O)cc3)cc2n1` [Compound 94, 2-(4-(2-(methylamino)quinolin-7-yl)benzyl)-5-phenyl-2,7-naphthyridin-1(2H)-one], under setting [1], the IC50 was 1 to 10 µM. As for `O=c1c2cncc(-c3ccccc3)c2ccn1Cc1cn2cc(CNc3cc(NCCCCl)ccn3)ccc2n1` [Compound 96, 2-((6-(((4-((3-chloropropyl)amino)pyridin-2-yl)amino)methyl)imidazo [1,2-a]pyridin-2-yl)methyl)-5-phenyl-2,7-naphthyridin-1(2H)-one], under setting [1], the 50% inhibitory concentration (IC50) lay within 1 to 10 µM. As for `COCCNc1ccnc(NCc2ccc3nc(Cn4ccc5c(-c6ccccc6)cncc5c4=O)cn3c2)c1` [Compound 99, 2-((6-(((4-((2-methoxyethyl)amino)pyridin-2-yl)amino)methyl)imidazo[1,2-a]pyridin-2-yl)methyl)-5-phenyl-2,7-naphthyridin-1(2H)-one], the IC50 (Homo sapiens, MOLM-13, 72 h) is above 10 µM. As for `O=c1c2cncc(-c3ccccc3)c2ccn1Cc1cn2cc(CNc3ccccn3)ccc2n1` [Compound 100, 5-phenyl-2-((6-((pyridin-2-ylamino)methyl)imidazo[1,2-a]pyridin-2-yl)methyl)-2,7-naphthyridin-1(2H)-one], the IC50 under setting [1] was in the range of 1 to 10 µM. The same measure, in the same setting: for `COc1ccnc(NCc2ccc3nc(Cn4ccc5c(-c6ccccc6)cncc5c4=O)cn3c2)c1` [Compound 101, 2-((6-(((4-methoxypyndin-2-yl)amino)methyl)imidazo[1,2-a]pyridin-2-yl)methyl)-5-phenyl-2,7-naphthyridin-1(2H)-one] the value was 1 to 10 µM; for `O=c1c2cncc(-c3ccccc3)c2ccn1Cc1cn2cc(CNc3cc(N4CCOCC4)ccn3)ccc2n1` [Compound 102, 2-{[6-({[4-(morpholin-4-yl)pyridin-2-yl]amino}methyl)imidazo[1,2-a]pyridin-2-yl]methyl}-5-phenyl-1,2-dihydro-2,7-naphthyridin-1-one], 1 to 10 µM. Regarding `O=c1c2cncc(-c3ccccc3)c2ccn1Cc1cn2cc(-c3cc(N4CCC4)ccn3)ccc2n1` [Compound 105, 2-((6-(4-(azetidin-1-yl)pyridin-2-yl)imidazo[1,2-a]pyridin-2-yl)methyl)-5-phenyl-2,7-naphthyridin-1(2H)-one], the 50% inhibitory concentration (IC50) (Homo sapiens, MOLM-13, 72 h) was in the range of 1 to 10 µM. Regarding `O=c1c2cncc(N3CC4(CCC4)C3)c2ccn1Cc1cn2cc(CNCC3CC(F)C3)ccc2n1` (centres unmarked) [Compound 110, 2-((6-((((3-fluorocyclobutyl)methyl)amino)methyl)imidazo [1,2-a]pyridin-2-yl)methyl)-5-(2-azaspiro[3.3]heptan-2-yl)-2,7-naphthyridin-1(2H)-one], under setting [1], the IC50 lay within 1 to 10 µM. Consider `CC1(C)CCN(Cc2ccc3nc(Cn4ccc5c(N6CC7(C6)CC(F)(F)C7)cncc5c4=O)cn3c2)CC1` [Compound 111, 5-{6,6-difluoro-2-azaspiro[3.3]heptan-2-yl}-2-({6-[(4,4-dimethylpiperidin-1-yl)methyl]imidazo[1,2-a]pyridin-2-yl}methyl)-1,2-dihydro-2,7-naphthyridin-1-one], for which the IC50 under setting [1] was above 10 µM. The same measure, in the same setting: to `CC1(C)CCN(Cc2ccc3nc(Cn4ccc5c(N6CCC(F)(F)CC6)cncc5c4=O)cn3c2)CC1` [Compound 112, 5-(4,4-difluoropiperidin-1-yl)-2-({6-[(4,4-dimethylpiperidin-1-yl)methyl]imidazo[1,2-a]pyridin-2-yl}methyl)-1,2-dihydro-2,7-naphthyridin-1-one] belongs 1 to 10 µM. The same measure, in the same setting: to `CC1(C)CCN(Cc2ccc3nc(Cn4ccc5c(N6CCOCC6)cncc5c4=O)cn3c2)CC1` [Compound 113, 2-({6-[(4,4-dimethylpiperidin-1-yl)methyl]imidazo[1,2-a]pyridin-2-yl}methyl)-5-(morpholin-4-yl)-1,2-dihydro-2,7-naphthyridin-1-one] belongs 1 to 10 µM. On the same count and under the same terms, to `CC1(C)CCN(Cc2ccc3nc(Cn4ccc5c(N6CC7(CCOCC7)C6)cncc5c4=O)cn3c2)CC1` [Compound 114, 2-({6-[(4,4-dimethylpiperidin-1-yl)methyl]imidazo[1,2-a]pyridin-2-yl}methyl)-5-{7-oxa-2-azaspiro[3.5]nonan-2-yl}-1,2-dihydro-2,7-naphthyridin-1-one] belongs 1 to 10 µM. Regarding `CC1(C)CCN(Cc2ccc3nc(Cn4ccc5c(N6CC7COCC7C6)cncc5c4=O)cn3c2)CC1` (centres unmarked) [Compound 117, 2-({6-[(4,4-dimethylpiperidin-1-yl)methyl]imidazo[1,2-a]pyridin-2-yl}methyl)-5-{hexahydro-1H-furo[3,4-c]pyrrol-5-yl}-1,2-dihydro-2,7-naphthyridin-1-one], the IC50 under setting [1] is above 10 µM.

Turning to `CC1(C)CCN(Cc2ccc3nc(Cn4ccc5c(N6CC(N7CCOCC7)C6)cncc5c4=O)cn3c2)CC1` [Compound 118, 2-({6-[(4,4-dimethylpiperidin-1-yl)methyl]imidazo[1,2-a]pyridin-2-yl}methyl)-5-[3-(morpholin-4-yl)azetidin-1-yl]-1,2-dihydro-2,7-naphthyridin-1-one], the IC50 under setting [1] lay in the range of 1 to 10 µM. The same measure, in the same setting: for `CC1(C)CCN(Cc2ccc3nc(Cn4ccc5c(N6CC7(CCNCC7)C6)cncc5c4=O)cn3c2)CC1` [Compound 119, 5-{2,7-diazaspiro[3.5]nonan-2-yl}-2-({6-[(4,4-dimethylpiperidin-1-yl)methyl]imidazo[1,2-a]pyridin-2-yl}methyl)-1,2-dihydro-2,7-naphthyridin-1-one] the value was 1 to 10 µM; for `CC1(C)CCN(Cc2ccc3nc(Cn4ccc5c(-c6ccc(S(N)(=O)=O)cc6)cncc5c4=O)cn3c2)CC1` [Compound 123, 4-[7-({6-[(4,4-dimethylpiperidin-1-yl)methyl]imidazo[1,2-a]pyridin-2-yl}methyl)-8-oxo-7,8-dihydro-2,7-naphthyridin-4-yl]benzene-1-sulfonamide], above 10 µM; for `CC1(C)CCN(Cc2ccc3nc(Cn4ccc5c(C#Cc6ccncc6)cncc5c4=O)cn3c2)CC1` [Compound 124, 2-((6-((4,4-dimethylpiperidin-1-yl)methyl)imidazo[1,2-a]pyridin-2-yl)methyl)-5-(pyridin-4-ylethynyl)-2,7-naphthyridin-1(2H)-one], above 10 µM. On the same count and under the same terms, for `CN(C)CC1CN(c2cncc3c(=O)n(Cc4cn5cc(CN6CCC(C)(C)CC6)ccc5n4)ccc23)C1` [Compound 125, 5-{3-[(dimethylamino)methyl]azetidin-1-yl}-2-({6-[(4,4-dimethylpiperidin-1-yl)methyl]imidazo[1,2-a]pyridin-2-yl}methyl)-1,2-dihydro-2,7-naphthyridin-1-one] the value was above 10 µM. On the same count and under the same terms, for `CN1CCN(C2CN(c3cncc4c(=O)n(Cc5cn6cc(CN7CCC(C)(C)CC7)ccc6n5)ccc34)C2)CC1` [Compound 126, 2-({6-[(4,4-dimethylpiperidin-1-yl)methyl]imidazo[1,2-a]pyridin-2-yl}methyl)-5-[3-(4-methylpiperazin-1-yl)azetidin-1-yl]-1,2-dihydro-2,7-naphthyridin-1-one] the value was above 10 µM; for `O=c1c2cncc(N3CC4(CCOCC4)C3)c2ccn1Cc1cn2cc(CN3CCC4(CC3)CC4)ccc2n1` [Compound 127, 2-{[6-({6-azaspiro[2.5]octan-6-yl}methyl)imidazo[1,2-a]pyridin-2-yl]methyl}-5-{7-oxa-2-azaspiro[3.5]nonan-2-yl}-1,2-dihydro-2,7-naphthyridin-1-one], 1 to 10 µM.

The values are drawn from patent US20250059207A1, “6,6-FUSED HETEROCYCLIC COMPOUNDS AS METTL3 INHIBITORS” (858 Therapeutics, Inc., priority 2021, published 2025).
